From the Deep4Chem optical property database

Test: solvent given as SMILES

CN(C)c1ccc(C(=Cc2ccc(/C=C/c3ccc(C#N)cc3)cc2)c2ccc(N(C)C)cc2)cc1
emission maximum (in C1CCOC1): 481 nm

Cc1nc2c(cc3c4c(cccc42)C(=O)OC3=O)o1
emission maximum (in CCO): 418 nm

COc1ccc(C2=Cc3ccccc3[Si]2(c2ccccc2)c2ccccc2)cc1
emission maximum (in ClCCl): 418 nm

CC[N+]1(CC)CN2C(=N1)C(C(=O)O)=Cc1cc(C)ccc12
emission maximum (in O): 469 nm

Cn1ccc(=O)n(C)c1=O
emission maximum (in CC#N): 308 nm

O=S(=O)([O-])c1ccc2c(O)cc(S(=O)(=O)[O-])cc2c1
emission maximum (in O): 385 nm

CC[B-]1(CC)c2cccc3c4c5c(cccc5c(c23)-c2cccc(C)[n+]21)[B-](CC)(CC)[n+]1c(C)cccc1-4
emission maximum (in ClCCl): 620 nm

N#Cc1c(C#N)c2cc(Cl)c(Cl)cc2c2cc(Cl)c(Cl)cc12
emission maximum (in ClC(Cl)Cl): 412 nm

C(=C\c1ncnc2ccccc12)/c1ccc(-c2ccc(N(c3ccccc3)c3ccccc3)cc2)cc1
emission maximum (in C1CCCCC1): 461 nm
emission maximum (in C1CCOC1): 572 nm
emission maximum (in CC#N): 642 nm
emission maximum (in CS(C)=O): 641 nm
emission maximum (in ClCCl): 610 nm

CC(=O)c1ccc(-c2ccc3c(c2)C(=O)c2cc(-c4ccc(C(C)=O)cc4)ccc2-3)cc1
emission maximum (in C1CCOC1): 375 nm

FC(F)(F)c1ccc2oc3nc4oc5ccc(N6c7ccccc7Oc7ccccc76)cc5c4cc3c2c1
emission maximum (in ClC(Cl)Cl): 489 nm

CCCC1(CCC)c2cc(-c3ccc(C(C)(C)C)cc3)ccc2-c2ccc(-c3ccc4c(c3)C(CCC)(CCC)c3cc(-c5ccc6c(c5)C(CCC)(CCC)c5cc(-c7ccc8c(c7)C(CCC)(CCC)c7cc(-c9ccc(C(C)(C)C)cc9)ccc7-8)ccc5-6)ccc3-4)cc21
emission maximum (in C1CCCCC1): 413 nm

Cc1cccc(C2=Cc3c4ccccc4cc[n+]3[B-](F)(F)O2)c1
emission maximum (in ClC(Cl)Cl): 464.8 nm

COC(=O)c1ccc(C2=C3C=c4sccc4=[N+]3[B-](F)(F)n3c2cc2sccc23)cc1
emission maximum (in ClCCl): 604 nm

Cc1cc(-c2ccc(C(C)(C)C)cc2)c2nsnc2c1-c1ccc(C(C)(C)C)cc1
emission maximum (in ClCCl): 489 nm

CCn1c2ccccc2c2cccc(N(c3ccccc3)c3ccccc3)c21
emission maximum (in ClCCl): 423 nm

CN1C(=CC2=C([O-])C(=Cc3oc4ccccc4[n+]3C)C2=C(C#N)C#N)C(C)(C)c2ccccc21
emission maximum (in ClC(Cl)Cl): 673 nm

CCOC(=O)CN1C(=O)C2=C(c3ccccc3)N(CC(=O)OCC)C(=O)C2=C1c1ccccc1
emission maximum (in CC#N): 512 nm
emission maximum (in CS(C)=O): 519 nm
emission maximum (in Cc1ccccc1): 520 nm

CN1C(=CC2=C([O-])C(=CC3=[N+](C)c4ccccc4C3(C)C)C2=C(C#N)C#N)C(C)(C)c2ccccc21
emission maximum (in ClC(Cl)Cl): 700 nm

C(=C\c1ccc(-c2ccncc2)cc1)/c1ccc(-c2ccncc2)cc1
emission maximum (in ClCCl): 387 nm

Nc1ccc(C#Cc2ccc3ccc4ccc(C#Cc5ccc(N)cc5)c5ccc2c3c45)cc1
emission maximum (in C1COCCO1): 476 nm
emission maximum (in CC(C)=O): 538 nm
emission maximum (in CCCCCC): 444 nm
emission maximum (in CCCCCCO): 534 nm
emission maximum (in CCO): 540 nm
emission maximum (in CCOC(C)=O): 506 nm
emission maximum (in CO): 557 nm
emission maximum (in Cc1ccccc1): 463 nm
emission maximum (in ClCCl): 492 nm

CC1(C)C(/C=C/c2cc3ccc(O)cc3oc2=O)=[N+](CCCS(=O)(=O)[O-])c2ccc(S(=O)(=O)O)cc21
emission maximum (in CCO): 648 nm
emission maximum (in CS(C)=O): 604 nm
emission maximum (in O): 636 nm

COc1ccc(-c2cnc(-c3ccccc3)o2)cc1OC
emission maximum (in ClCCl): 400 nm

Cc1ccc2nc3c4c(c5ccccc5c3nc2c1)OC(=O)CC4c1ccc(F)cc1 (stereo unspecified)
emission maximum (in ClC(Cl)Cl): 431 nm

c1ccc2c(-c3c4ccccc4c(-c4ccc(-c5ccc(-n6c7ccccc7c7ccccc76)cc5)cc4)c4ccccc34)cccc2c1
emission maximum (in ClCCl): 420 nm

COC(=O)c1ccc(C2=C(/C=C/c3ccc(OC)cc3)O[B-](F)(F)[O+]=C2/C=C/c2ccc(OC)cc2)cc1
emission maximum (in ClCCl): 557 nm

CCCCC(CC)Cn1c2cc(C#N)ccc2c2ccc(C#Cc3ccc4ccc5c(C#Cc6ccc7c8ccc(C#N)cc8n(CC(CC)CCCC)c7c6)cc(C#Cc6ccc7c8ccc(C#N)cc8n(CC(CC)CCCC)c7c6)c6ccc3c4c56)cc21 (stereo unspecified)
emission maximum (in ClCCl): 458 nm

N#Cc1ccc(-c2cnc3cccc(-c4ccccc4)n23)cc1
emission maximum (in ClCCl): 457 nm

Fc1nc(F)c(F)c(C#Cc2cc3c(cc2C#Cc2c(F)c(F)nc(F)c2F)OC2(CCCCC2)O3)c1F
emission maximum (in CC#N): 460 nm

Cc1ccc(-c2cc(/C=C/c3ccc(N(c4ccccc4)c4ccccc4)cc3)c(C#N)c(N3CCCCC3)c2)cc1
emission maximum (in CS(C)=O): 523 nm

c1ccc(N(c2ccccc2)c2ccc(-c3ccc4c(c3)C3(c5cc(-c6ccc(N(c7ccccc7)c7ccccc7)cc6)ccc5-4)c4ccccc4N(c4ccccc4)c4ccccc43)cc2)cc1
emission maximum (in ClCCl): 451 nm
emission maximum (in c1cc(-n2c3ccccc3c3ccccc32)cc(-n2c3ccccc3c3ccccc32)c1): 432 nm

N#Cc1ccc(/C=C/c2ccc(C=C(c3ccccc3)c3ccccc3)cc2)cc1
emission maximum (in C1CCOC1): 456 nm

CCCCCCCCCCCCN1C(=O)c2c(c3ccc4cc(-c5ccc(OC)cc5)c(OC)cc4c3c3c2ccc2cc(-c4ccc(OC)cc4)c(OC)cc23)C1=O
emission maximum (in ClCCl): 532 nm

CCOC(=O)c1c2c3c(cccc3c3cc4ccccc4cc13)N(C)C2=O
emission maximum (in CC#N): 413 nm

CC(=O)c1ccc(/C=C/C=C/C2=NC3C(=O)NC(N)=NC3N2[C@H]2C[C@H](O)[C@@H](CO)O2)cc1 (stereo partly specified)
emission maximum (in C1COCCO1): 494 nm
emission maximum (in CC#N): 547 nm
emission maximum (in CO): 554 nm

CCCCCCn1c2ccsc2c2sc3c(sc4c5sccc5n(CCCCCC)c43)c21
emission maximum (in ClCCl): 411 nm

CCC1=C(C)C2=C(C)c3c(C)c(-c4csc(N5CCOCC5)n4)c(C)n3[B-](F)(F)[N+]2=C1C
emission maximum (in C1CCOC1): 618 nm
emission maximum (in C1COCCO1): 606 nm
emission maximum (in CC#N): 543 nm
emission maximum (in CC(C)O): 538 nm
emission maximum (in CCO): 539 nm
emission maximum (in CCOC(C)=O): 549 nm
emission maximum (in CN(C)C=O): 539 nm
emission maximum (in CO): 540 nm
emission maximum (in CS(C)=O): 539 nm
emission maximum (in Cc1ccccc1): 597 nm
emission maximum (in ClC(Cl)Cl): 603 nm
emission maximum (in ClCCl): 537 nm

O=C1c2ccccc2-c2ccc(N3CCN(c4ccccc4)CC3)c3cccc1c23
emission maximum (in C1CCCCC1): 529 nm
emission maximum (in C1CCOC1): 583 nm
emission maximum (in C1COCCO1): 578 nm
emission maximum (in CC1COC(=O)O1): 614 nm
emission maximum (in CC#N): 603 nm
emission maximum (in CC(C)=O): 601 nm
emission maximum (in CCCCCCCCO): 590 nm
emission maximum (in CCCCCO): 586 nm
emission maximum (in CCCCO): 581 nm
emission maximum (in CCCO): 586 nm
emission maximum (in CCO): 589 nm
emission maximum (in CCOC(C)=O): 587 nm
emission maximum (in CN(C)C=O): 602 nm
emission maximum (in CO): 577 nm
emission maximum (in CS(C)=O): 613 nm
emission maximum (in Cc1ccccc1): 562 nm
emission maximum (in ClC(Cl)Cl): 591 nm

CC(C)[Si](C#Cc1c2ccc(C(C)(C)C)cc2c(C#Cc2c3ccc(C(C)(C)C)cc3c(C#Cc3c4ccc(C(C)(C)C)cc4c(C#C[Si](C(C)C)(C(C)C)C(C)C)c4ccc(C(C)(C)C)cc34)c3ccc(C(C)(C)C)cc23)c2ccc(C(C)(C)C)cc12)(C(C)C)C(C)C
emission maximum (in Cc1ccccc1): 589 nm

C[Si](C)(C)[Si](C)(C)c1cccc2cc3ccccc3cc12
emission maximum (in C1CCCCC1): 410 nm
emission maximum (in CC#N): 411 nm

N#Cc1nc(N(Cc2ccc(I)cc2)Cc2ccc(I)cc2)c(C#N)nc1N(Cc1ccc(I)cc1)Cc1ccc(I)cc1
emission maximum (in ClC(Cl)Cl): 574 nm

c1ccc2c(c1)ccc1oc3ccc4cc5oc6ccc7ccc8oc9ccc%10ccccc%10c9c8c7c6c5cc4c3c12
emission maximum (in CC#N): 432 nm

O=P(c1ccccc1)(c1ccccc1)n1c2ccccc2c2ccccc21
emission maximum (in C1CCOC1): 360 nm
emission maximum (in CC(C)=O): 406 nm
emission maximum (in Cc1ccccc1): 372 nm
emission maximum (in ClCCl): 355 nm

O=C1c2ccccc2-c2ccc(N3CCOCC3)c3cccc1c23
emission maximum (in C1CCOC1): 600 nm
emission maximum (in CCCCCC): 529 nm
emission maximum (in CCO): 640 nm
emission maximum (in CCOC(C)=O): 600 nm
emission maximum (in CN(C)C=O): 622 nm
emission maximum (in CO): 661 nm
emission maximum (in Cc1ccccc1): 568 nm
emission maximum (in ClC(Cl)(Cl)Cl): 552 nm
emission maximum (in ClC(Cl)Cl): 625 nm
emission maximum (in ClCCl): 625 nm
emission maximum (in c1ccccc1): 562 nm

O=c1c2cc(F)c(N3CCCCC3)cc2oc2cc(N3CCCCC3)c(F)cc12
emission maximum (in CCO): 457 nm

O=c1oc2ccccc2c2c1c(=O)oc1cc(O)ccc12
emission maximum (in ClCCl): 455 nm

C(=C\c1nc2ccccc2[nH]1)/c1ccc(/C=C/c2nc3ccccc3[nH]2)cc1
emission maximum (in C1CCOC1): 428 nm
emission maximum (in CC#N): 427 nm
emission maximum (in CC(C)=O): 427 nm
emission maximum (in CN(C)C=O): 433 nm
emission maximum (in CO): 422 nm
emission maximum (in CS(C)=O): 439 nm

N#Cc1cc(C#N)c(-n2c3ccccc3c3cc(-c4ccc5c(c4)c4ccccc4n5-c4cc(-n5c6ccccc6c6ccccc65)c(C#N)cc4C#N)ccc32)cc1-n1c2ccccc2c2ccccc21
emission maximum (in O=P(c1ccccc1)(c1ccccc1)c1ccccc1Oc1ccccc1P(=O)(c1ccccc1)c1ccccc1): 470 nm

CCCCn1c2ccc(-c3ccc4c(c3)c3c5c(ccc6ccccc65)ccc3n4CCCC)cc2c2c3c(ccc4ccccc43)ccc21
emission maximum (in ClCCl): 437 nm

Cc1ccc(Nc2ccc(Nc3ccc(C)cc3)c3c2C(=O)c2ccccc2C3=O)cc1
emission maximum (in C1CCCCC1): 680 nm
emission maximum (in C1COCCO1): 684 nm
emission maximum (in CC(C)=O): 684 nm
emission maximum (in CCCCCCCCCCO): 682 nm
emission maximum (in CCCCCCCO): 684 nm
emission maximum (in CCCCCCO): 682 nm
emission maximum (in CCCCO): 683 nm
emission maximum (in CCO): 684 nm
emission maximum (in CN(C)C=O): 686 nm
emission maximum (in CO): 682 nm
emission maximum (in CS(C)=O): 689 nm
emission maximum (in ClC(Cl)(Cl)Cl): 685 nm
emission maximum (in c1ccccc1): 684 nm

CC1=N/C(=C\c2ccccc2N(C)C)C(=O)N1C
emission maximum (in C1CCCCC1): 472 nm
emission maximum (in C1CCOC1): 519 nm
emission maximum (in CC#N): 536 nm
emission maximum (in CO): 522 nm
emission maximum (in CS(C)=O): 552 nm
emission maximum (in ClCCl): 535 nm
emission maximum (in O): 426 nm

Brc1ccc(-c2nc3sc4ccccc4c3s2)cc1
emission maximum (in CS(C)=O): 420 nm

Clc1ccc(-c2nc3sc4ccccc4c3s2)cc1
emission maximum (in CS(C)=O): 418 nm
